From PubChem BioAssay AID1963827 (Molecular Pharmacology Branch, DTP, NCI, 2024)
Where “and” joins values, the source holds several entries; their conditions need not be identical. Equal entries are not always repeated.

System: 994946-033-R-J1-PDC complex spheroid viability
Assay: Anticancer human tumor 994946-033-R-J1-PDC patient-derived melanoma cell line growth inhibition [POLQ]
Settings: for viability, T/C: stronger effect = lower value
Method: Multicellular complex tumor spheroid response to Polymerase (POL) inhibitors (novobiocin, ART-558, RP6685) in combination with a variety of drugs and investigational agents in selected tumor cell lines
The POL inhibitors (novobiocin, ART-558, and RP6685) were evaluated both individually and in combination with standard of care and investigational anticancer small molecules within a complex spheroid model of solid tumors. . Complex spheroids include a stromal component modeled by human endothelial cells (HUVEC) and fibroblasts modeled by human mesenchymal stem cells (MSCs). The concentration ranges selected for each drug and investigational agent were based upon clinically achievable concentrations if the clinical Cmax of the agent was known.
Compounds. The drugs and investigational agents: novobiocin (NSC847541), ART-558 (NSC835418), RP-6685 (NSC848927), peposertib (NSC802822), ceralasertib (NSC780249), elimusertib (NSC800525), camonsertib (NSC841442), AZD-1390 (NSC803789), olaparib (NSC753686), talazoparib (NSC767125), rucaparib (NSC756644), sotorasib (NSC818433), MRTX-1133 (NSC836407), SN-38 (NSC673596), topotecan (NSC609699), epotoside (NSC141540), doxorubicin (NSC123127), gemcitabine (NSC613327), 5-fluorouracil (NSC19893), paclitaxel (NSC125973), vemurafenib (NSC761431), MSA-2 (NSC828583), SN-011 (NSC837082), adavosertib (NSC754352), prexasertib (NSC758257), carboplatin (NSC241240) and oxaliplatin (NSC266046), were obtained from the National Cancer Institute (NCI) Developmental Therapeutics Program Chemical Repository (21). The FDA-approved anticancer drug set is available from the Developmental Therapeutics Program at https://dtp.cancer.gov/organization/dscb/obtaining/. […] The stock solutions were prepared in dimethyl sulfoxide (DMSO, Sigma-Aldrich, St. Louis, MO, cat. D2650), except for the platinum compounds which were prepared in saline (Quality Biological, Gaithersburg, MD, cat. 114-055-101), at 800-fold the tested concentration and stored at -70 degrees C prior to their use. All drugs and investigational agents were tested over a range starting from a high concentration at or near the clinical Cmax and decreasing in half-log increments. If the clinical Cmax for an agent had not been determined, the highest concentration tested was 10 microM, except for SN-38, which was tested at a high concentration of 1 microM.
Cell Culture. All cells were maintained in an incubator at 37 degrees C and 5% CO2 with 95% humidity. The PDC lines were cultured according to standard operating procedures established by the NCI PDMR (https://pdmr.cancer.gov). Table 3 of the manuscript, lists the cell lines along with the number of the three cell types plated to form the mct-spheroids and media for tumor cell growth. After thawing, all PDC lines, except 997537-175-T-J1-PDC and 415267-285-R-J2-PDC, were cultured in Matrigel-coated flasks prepared with a working solution of 1X Ham's F-12 nutrient mix, without supplementation (Thermo Fisher Scientific, cat. 11765054), 100 U/mL penicillin-streptomycin (Thermo Fisher Scientific, cat. 15140122), and 2.5% Matrigel (Corning Inc., Corning, NY, cat. 354248) for the first three passages. The two PDC lines 997537-175-T-J1-PDC and 415267-285-R-J2-PDC were cultured on uncoated flasks. The 857933-349-R-J2-PDC line was cultured in 6C/Colon 1B media containing advanced DMEM/F-12 (Thermo Fisher Scientific, cat. 12634028), 10 mM HEPES (Thermo Fisher Scientific, cat. 15630080), 1X GlutaMAX supplement (Thermo Fisher Scientific, cat. 35050061), 0.1 mg/mL primocin (InvivoGen, San Diego, CA, cat. ant-pm-2), 10% defined fetal bovine serum, heat inactivated (HyClone Laboratories Inc., Logan, UT, cat. SH30070.03HI), 50% L-WRN conditioned media (ATCC, cat. CRL-3276), 1.25 mM N-Acetyl-L-cysteine (Sigma-Aldrich, cat. A9165), 10 mM nicotinamide (Sigma-Aldrich, cat. N0636), 1X B-27 supplement (Thermo Fisher Scientific, cat. 17504044), 1X N-2 supplement (Thermo Fisher Scientific, cat. […]
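Note: spheroids exposed to drugs for 7 days.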
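Throughout, for viability, T/C: 100% = DMSO vehicle treated spheroids.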

SMILES: CCc1cc2c(N3CCc4c(cc(Cn5ccnc5)cc4-c4cn(C)nc4C(F)(F)F)C3=O)ccnc2c(OC)n1 + COC1C(OC(N)=O)C(O)C(Oc2ccc3c(O)c(NC(=O)c4ccc(O)c(CC=C(C)C)c4)c(=O)oc3c2C)OC1(C)C
- IC50 (curve of first compound, second compound 0.0316 µM): > 10 µM
- IC50 (curve of first compound, second compound 0.1 µM): > 10 µM
- IC50 (curve of first compound, second compound 0.316 µM): > 10 µM
- IC50 (curve of first compound, second compound 1 µM): > 10 µM
- IC50 (curve of first compound, second compound 3.16 µM): > 10 µM
- IC50 (curve of first compound, second compound 10 µM): > 10 µM
- viability, T/C (second compound 0.0316 µM, first compound 0.0316 µM): 98.9%
- viability, T/C (second compound 0.0316 µM, first compound 0.1 µM): 72.2%
- viability, T/C (second compound 0.0316 µM, first compound 0.316 µM): 61.1%
- viability, T/C (second compound 0.0316 µM, first compound 1 µM): 73.3%
- viability, T/C (second compound 0.0316 µM, first compound 3.16 µM): 63.3%
- viability, T/C (second compound 0.0316 µM, first compound 10 µM): 70%
- viability, T/C (second compound 0.1 µM, first compound 0.0316 µM): 92.7%
- viability, T/C (second compound 0.1 µM, first compound 0.1 µM): 77.8%
- viability, T/C (second compound 0.1 µM, first compound 0.316 µM): 96.2%
- viability, T/C (second compound 0.1 µM, first compound 1 µM): 78.8%
- viability, T/C (second compound 0.1 µM, first compound 3.16 µM): 61.2%
- viability, T/C (second compound 0.1 µM, first compound 10 µM): 81.2%
- viability, T/C (second compound 0.316 µM, first compound 0.0316 µM): 100%
- viability, T/C (second compound 0.316 µM, first compound 0.1 µM): 98.3%
- viability, T/C (second compound 0.316 µM, first compound 0.316 µM): 70.6%
- viability, T/C (second compound 0.316 µM, first compound 1 µM): 66.1%
- viability, T/C (second compound 0.316 µM, first compound 3.16 µM): 86.4%
- viability, T/C (second compound 0.316 µM, first compound 10 µM): 63.7%
- viability, T/C (second compound 1 µM, first compound 0.0316 µM): 91.6%
- viability, T/C (second compound 1 µM, first compound 0.1 µM): 75.7%
- viability, T/C (second compound 1 µM, first compound 0.316 µM): 94.1%
- viability, T/C (second compound 1 µM, first compound 1 µM): 85.3%
- viability, T/C (second compound 1 µM, first compound 3.16 µM): 68.1%
- viability, T/C (second compound 1 µM, first compound 10 µM): 69%
- viability, T/C (second compound 3.16 µM, first compound 0.0316 µM): 91.9%
- viability, T/C (second compound 3.16 µM, first compound 0.1 µM): 77.3%
- viability, T/C (second compound 3.16 µM, first compound 0.316 µM): 81.7%
- viability, T/C (second compound 3.16 µM, first compound 1 µM): 73.8%
- viability, T/C (second compound 3.16 µM, first compound 3.16 µM): 74.3%
- viability, T/C (second compound 3.16 µM, first compound 10 µM): 54%
- viability, T/C (second compound 10 µM, first compound 0.0316 µM): 91.7%
- viability, T/C (second compound 10 µM, first compound 0.1 µM): 77.6%
- viability, T/C (second compound 10 µM, first compound 0.316 µM): 67.1%
- viability, T/C (second compound 10 µM, first compound 1 µM): 81.2%
- viability, T/C (second compound 10 µM, first compound 3.16 µM): 64.3%
- viability, T/C (second compound 10 µM, first compound 10 µM): 58.9%

SMILES: CC(=O)O[C@H]1C(=O)[C@@]2(C)[C@H]([C@H](OC(=O)c3ccccc3)[C@]3(O)C[C@H](OC(=O)[C@H](O)[C@@H](NC(=O)c4ccccc4)c4ccccc4)C(C)=C1C3(C)C)[C@]1(OC(C)=O)CO[C@@H]1C[C@@H]2O
- viability, T/C (compound 0.00949 µM): 24.4% and 24.8% and 18.7%
- viability, T/C (compound 0.03 µM): 21.9% and 23.1% and 18.1%
- viability, T/C (compound 0.0949 µM): 18.5% and 17.9% (2×)
- viability, T/C (compound 0.3 µM): 17.7% and 11.9% and 15.6%
- viability, T/C (compound 0.949 µM): 18.8% and 15.4% and 12.7%
- viability, T/C (compound 3 µM): 11.4% and 13% and 9.5%
- IC50 (curve of compound): < 0.00949 µM

SMILES: C=CC(=O)N1CCN(c2nc(=O)n(-c3c(C)ccnc3C(C)C)c3nc(-c4c(O)cccc4F)c(F)cc23)C(C)C1 (stereo not given)
- viability, T/C (compound 0.0316 µM): 127% and 82.1% and 87.4%
- viability, T/C (compound 0.1 µM): 72.6% and 95.5% and 105%
- viability, T/C (compound 0.316 µM): 121% and 63.8% and 132%
- viability, T/C (compound 1 µM): 101% and 104% and 100%
- viability, T/C (compound 3.16 µM): 102% and 93.9% and 110%
- viability, T/C (compound 10 µM): 120% and 102% and 100%
- IC50 (curve of compound): > 10 µM

SMILES: O=c1[nH]cc(F)c(=O)[nH]1
- viability, T/C (compound 0.0316 µM): 115% and 112% and 96.8%
- viability, T/C (compound 0.1 µM): 95.1% and 107% and 103%
- viability, T/C (compound 0.316 µM): 71.1% and 97.4% and 103%
- viability, T/C (compound 1 µM): 63.1% and 67.9% and 60.2%
- viability, T/C (compound 3.16 µM): 50.7% and 73.6% and 64%
- viability, T/C (compound 10 µM): 45.7% and 47.6% and 54.8%
- IC50 (curve of compound): 4.22 µM and > 10 µM

SMILES: CCc1cc2c(N3CCc4c(cc(Cn5ccnc5)cc4-c4cn(C)nc4C(F)(F)F)C3=O)cc(C)nc2c(OC)n1
- viability, T/C (compound 0.0316 µM): 79% and 66% and 74.7%
- viability, T/C (compound 0.1 µM): 78.9% and 75.4% and 75.9%
- viability, T/C (compound 0.316 µM): 90.3% and 75% and 87.3%
- viability, T/C (compound 1 µM): 93.3% and 71.1% and 84.3%
- viability, T/C (compound 3.16 µM): 74.8% and 70.8% and 89.7%
- viability, T/C (compound 10 µM): 72% and 68.3% and 85.2%
- IC50 (curve of compound): > 10 µM
